Where two headings read alike, the source gives them in different places.
Columns and labels:
HBV (genotype CAT) = assay: Test Example 2-2: anti-HBV assay in PXB-cells (fresh human hepatocytes); format: cell-based; details: Hepatitis B virus, Hepatocyte
Experimental: Using fresh human hepatocytes (PXB-cells, manufactured by PhenixBio Co., Ltd.) collected from a PXB mouse (a chimeric mouse with human hepatocytes), the anti-HBV activity of the representative compounds was evaluated in the following procedure.
(§1) The following was used as a medium:
DMEM (manufactured by Sigma)+0.25 μg/mL insulin (manufactured by Wako)+1% penicillin/streptomycin. (manufactured by Sigma)+20 mmol/L HEPES (manufactured by Sigma)+15 μg/mL L-proline (manufactured by Sigma)+50 nmol/L dexamethasone (manufactured by Sigma)+5 ng/mL EGF (manufactured by Peprotech)+0.1 mmol/L ascorbic acid 2-phosphate (manufactured by Wako)+10% FBS+2% DMSO
Each of the test compounds) was further added to the medium to prepare a test solution containing each of the test compounds at various concentrations.
(1) PXB-cells seeded at a seeding density of 2.1×10^5 cells/cm^2 in a 96-well microliter plate were incubated in a 5% CO2 incubator at 37° C. until a day on which the cells were infected.
(2) A HBV (genotype CAT) prepared by transfecting an HBV plasmid into an HepG2 cell was suspended in the medium containing 4% PEG-8000, and added to the plate of (1) at about 30 copies/cell such that the PXB cells were infected (100 μL/well), and the plate was incubated in a 5% CO2 incubator at 37° C. for 1 day.
(3) The culture supernatant on day 1 post infection was removed and the cells were washed three times with DMEM containing 10% FBS and 1% penicillin/streptomycin. Then, the medium was added to the plate (100 μL/well) and the plate was incubated in a 5% CO2 incubator at 37° C. for 1 day.
(4) The culture supernatant on day 2 post infection was removed and the cells were washed three times with DMEM containing 10% FBS and 1% penicillin/streptomycin. Then, the medium was added to the plate (100 μL/well) and the plate was incubated in a 5% CO2 incubator at 37° C. for 5 days.
(5) The culture supernatant on day 7 post infection was removed, the medium was added to the plate (100 μL/well), and the plate was incubated in a 5% CO2 incubator at 37° C. for 5 days.
(6) The culture supernatant on day 12 post infection was removed, the medium was added to the plate (100 μL/well), and the plate was incubated in a 5% CO2 incubator at 37° C. for 5 days.
(§2) (7) The culture supernatant on day 17 post infection was removed, the test solution was added to the plate (100 μL/well), and the plate was incubated in a 5% CO2 incubator at 37° C. for 5 days. As a control without the compound added, the medium was added to the plate (100 μL/well) and the plate was incubated in a 5% CO2 incubator at 37° C. for 5 days.
as §2, with “(8)” for “(7)”, “22” for “17”
as §2, with “(9)” for “(7)”, “27” for “17”
(10) The culture supernatant on day 32 post infection was collected.
(11) The collected culture supernatant on day 32 post infection was treated with a mixture of Buffer AL (manufactured by QIAGEN) and Proteinase K (manufactured by Invitrogen). The amount of HBV-DNA in the obtained solution was absolutely quantified by a real-time PCR method. In addition, the amount of HBsAg in the culture supernatant was absolutely quantified by chemiluminescent enzyme immunoassay using Lumipulse (registered trademark) HBsAg-HQ (manufactured by Fujirebio Inc.). A relative viral load (%) with respect to a control without the compound added was each calculated. […]

HBV = assay: Test Example 1-2: anti-HBV assay in HepG2.2.15 cells (test solution 100 μL/well); format: cell-based, hepatitis B virus; details: culture supernatant
Experimental: Using HepG2.2.15 cells (Proc. Natl. Acad. Sci. USA, 84, 1005-1009, 1987) which have an HBV genome introduced into a hepatoblastoma cell line, HepG2, and persistently produce a virus, the anti-HBV activity of the representative compounds was evaluated in the following procedure.
as §1
DMEM/F-12, GlutaMAX (manufactured by Invitrogen)+5 μg/mL insulin (manufactured by Wako)+1% penicillin/streptomycin (manufactured by Sigma)+10 mmol/L HEPES (manufactured by Sigma)+50 μmol/L hydrocortisone (manufactured by Sigma)+10% FBS
A mixture of a test compound with dimethyl sulfoxide (DMSO) was further added to the medium to obtain a final concentration of DMSO of 0.25% (v/v), and thus, test solutions containing the test compound at various concentrations were prepared. In addition, a test solution obtained by adding DMSO alone to the medium to obtain a final concentration of 0.25% (v/v) was prepared as a control without addition of a drug.
(1) The HepG2.2.15 cells were suspended in the medium to prepare a. HepG2.2.15 cell suspension at 4×10^5 cells/mL. The suspension was seeded in a 96-well microtiter plate (100 μL/well) and the plate was incubated in a 5% CO2 incubator at 37° C. for 2 days.
(2) The culture supernatant was removed and the cells were washed twice with PBS (−) (100 μL/well).
(3) The test solution (200 μL/well) was added to the plate of (2) and the plate was incubated in a 5% CO2 incubator at 37° C. for 4 days.
(4) The culture supernatant was removed, the test solution (200 μL/well) was added again to the plate, and the plate was incubated in a 5% CO2 incubator at 37° C. for 3 days.
(5) The culture supernatant was collected and treated with a mixture of Buffer AL (manufactured by QIAGEN) and Proteinase K (manufactured by Invitrogen). The amount of DNA of HBV (HBV-DNA) in the obtained solution was absolutely quantified by a real-time PCR method. In addition, HBsAg (hepatitis B surface antigen) in the culture supernatant was absolutely quantified by chemiluminescent enzyme immunoassay using Lumipulse (registered trademark) HBsAg-HQ (manufactured by Fujirebio Inc.). The relative viral load (%) of a well with the compound added to a well without the compound added was calculated. An IC50 of the compound was calculated using a FORECAST function (linear regression method) of Microsoft Office Excel 2007 by plotting the logarithm of the concentration against the relative viral load as a real number.
The IC50 of HBV-DNA was defined as a concentration (or a logarithm dilution of the culture supernatant) of the compound, in which the amount of HBV-DNA is reduced by 50% as compared a control without the compound added.
In addition, the IC50 of HBsAg was defined as a concentration (or a logarithm dilution of the culture supernatant) of the compound, in which the amount of HBsAg is reduced by 50% as compared a control without the compound added.
The test was performed by the same method as in Test Example 1-1 except that the amounts of the test solutions of (3) and (4) of Test Example 1-1 was changed to 100 μL/well.

[1] = read-out: IC50 HBV-DNA, PXB-cells infected with HBV genotype CAT, culture supernatant on day 32 post infection
[2] = read-out: IC50 HBsAg, PXB-cells infected with HBV genotype CAT, culture supernatant on day 32 post infection
[3] = Hepatitis B virus, read-out: IC50 HBV-DNA
[4] = Hepatitis B virus, read-out: IC50 HBsAg

| Structure (SMILES) | IC50 (HBV; [3]) | IC50 (HBV; [4]) | further results |
| --- | --- | --- | --- |
| CO[C@@H]1CCN(c2ccc(-c3cc(=O)c(C(=O)O)cn3-c3ccc4nc(N5CCOCC5)sc4c3)cc2F)C1 [Example 20-1, (R)-6-(3-fluoro-4-(3-methoxypyrrolidin-1-yl)phenyl)-1-(2-morpholinobenzo[d]thiazol-6-yl)-4-oxo-1,4-dihydropyridine-3-carboxylic acid] | – | – | IC50 (HBV (genotype CAT); [1]): < 500 nM; IC50 (HBV (genotype CAT); [2]): < 500 nM |
| CN(C)[C@@H]1CCN(c2nc3ccc(-n4cc(C(=O)O)c(=O)cc4-c4ccc(N5CCCC5)cc4)cc3s2)C1 [Example 17-2, (R)-1-(2-(3-(dimethylamino)pyrrolidin-1-yl)benzo[d]thiazol-6-yl)-4-oxo-6-(4-(pyrrolidin-1-yl)phenyl)-1,4-dihydropyridine-3-carboxylic acid] | – | – | IC50 (HBV (genotype CAT); [1]): < 500 nM; IC50 (HBV (genotype CAT); [2]): < 500 nM |
| CO[C@@H]1CCN(c2ccc(-c3cc(=O)c(C(=O)O)cn3-c3ccc4nc(N5CC(OC(F)F)C5)sc4c3)cc2F)C1 [Example 23-2, (R)-1-(2-(3-(difluoromethoxy)azetidin-1-yl)benzo[d]thiazol-6-yl)-6-(3-fluoro-4-(3-methoxypyrrolidin-1-yl)phenyl)-4-oxo-1,4-dihydropyridine-3-carboxylic acid] | 0.96 nM | 2.8 nM | – |
| CO[C@@H]1CCN(c2ccc(-c3cc(=O)c(C(=O)O)cn3-c3ccc4nc(N5CC(OCCF)C5)sc4c3)cc2F)C1 [Example 23-4] | – | – | IC50 (HBV; read-out: IC50 HBV-DNA): 0.88 nM; IC50 (HBV; read-out: IC50 HBsAg): 3.8 nM |
| COCCOC1CN(c2nc3ccc(-n4cc(C(=O)O)c(=O)cc4-c4ccc(N5CC[C@@H](OC)C5)c(F)c4)cc3s2)C1 [Example 23-9] | – | – | IC50 (HBV; read-out: IC50 HBV-DNA): 0.68 nM; IC50 (HBV; read-out: IC50 HBsAg): 1.8 nM |
| COCCCOC1CN(c2nc3ccc(-n4cc(C(=O)O)c(=O)cc4-c4ccc(N5CC[C@@H](OC)C5)c(F)c4)cc3s2)C1 [Example 23-5] | – | – | IC50 (HBV; read-out: IC50 HBV-DNA): 0.5 nM; IC50 (HBV; read-out: IC50 HBsAg): 2.7 nM |
| COCCO[C@H]1CCN(c2ccc(-c3cc(=O)c(C(=O)O)cn3-c3ccc4nc(N5CCOCC5)sc4c3)cc2)C1 [Example 22-1, (S)-6-(4-(3-(2-methoxyethoxy)pyrrolidin-1-yl)phenyl)-1-(2-morpholinobenzo[d]thiazol-6-yl)-4-oxo-1,4-dihydropyridine-3-carboxylic acid] | 44 nM | 89 nM | – |
| CCOC1CN(c2nc3ccc(-n4cc(C(=O)O)c(=O)cc4-c4ccc(N5CC[C@@H](OC)C5)c(F)c4)cc3s2)C1 [Example 23-6, (R)-1-(2-(3-ethoxyazetidin-1-yl)benzo[d]thiazol-6-yl)-6-(3-fluoro-4-(3-methoxypyrrolidin-1-yl)phenyl)-4-oxo-1,4-dihydropyridine-3-carboxylic acid] | 0.45 nM | 1.1 nM | – |
| COCCO[C@H]1CCN(c2ccc(-c3cc(=O)c(C(=O)O)cn3-c3ccc4nc(N5CCC[C@@H]5COC)sc4c3)cc2)C1 [Example 22-2, 6-(4-((S)-3-(2-methoxyethoxy)pyrrolidin-1-yl)phenyl)-1-(2-((R)-2-(methoxymethyl)pyrrolidin-1-yl)benzo[d]thiazol-6-yl)-4-oxo-1,4-dihydropyridine-3-carboxylic acid] | 10 nM | 22 nM | – |
| CO[C@@H]1CCN(c2ccc(-c3cc(=O)c(C(=O)O)cn3-c3ccc4nc(N5CC(C)(OC)C5)sc4c3)cc2F)C1 [Example 23-8, (R)-6-(3-fluoro-4-(3-methoxypyrrolidin-1-yl)phenyl)-1-(2-(3-methoxy-3-methylazetidin-1-yl)benzo[d]thiazol-6-yl)-4-oxo-1,4-dihydropyridine-3-carboxylic acid] | 0.89 nM | 1.4 nM | – |
| CO[C@@H]1CCN(c2ccc(-c3cc(=O)c(C(=O)O)cn3-c3ccc4nc(N5CC[C@H](N6CCOCC6)C5)sc4c3)cc2F)C1 [Example 23-1, 6-(3-fluoro-4-((R)-3-methoxypyrrolidin-1-yl)phenyl)-1-(2-((S)-3-morpholinopyrrolidin-1-yl)benzo[d]thiazol-6-yl)-4-oxo-1,4-dihydropyridine-3-carboxylic acid] | 1.7 nM | 4.3 nM | – |
| COCCO[C@@H]1CCN(c2ccc(-c3cc(=O)c(C(=O)O)cn3-c3ccc4nc(N5CC[C@H](OC)C5)sc4c3)cc2)C1 [Example 21, 6-(4-((R)-3-(2-Methoxyethoxy)pyrrolidin-1-yl)phenyl)-1-(2-((S)-3-methoxypyrrolidin-1-yl)benzo[d]thiazol-6-yl)-4-oxo-1,4-dihydropyridine-3-carboxylic acid] | 8.3 nM | 17 nM | – |
| CO[C@@H]1CCN(c2ccc(-c3cc(=O)c(C(=O)O)cn3-c3ccc4nc(N5CC(OCC6CCCO6)C5)sc4c3)cc2F)C1 (stereo partly drawn) [Example 23-3, 6-(3-fluoro-4-((R)-3-methoxypyrrolidin-1-yl)phenyl)-4-oxo-1-(2-(3-((tetrahydrofuran-2-yl)methoxy)azetidin-1-yl)benzo[d]thiazol-6-yl)-1,4-dihydropyridine-3-carboxylic acid] | 0.61 nM | 1.7 nM | – |
